# Laboratory results reported in paper PMC10401651, “Characterization of Uranyl (UO2^2+) Ion Binding to Amyloid Beta (Aβ) Peptides: Effects on Aβ Structure and Aggregation” (ACS Chemical Neuroscience, 2023).
# Biological target: T1, Aβ42 oligomers (Homo sapiens, UniProt P05067)
# T1 construct: Synthetic lyophilized wt Aβ (1–42) peptides, abbreviated as Aβ42; purchased JPT Peptide Technologies (Germany); host or cells: synthetic peptide
# Test: BN-PAGE analysis of SDS-stabilized Aβ42 oligomer formation
# Type: biochemical
# Procedure: Treatment of Aβ42 peptides with low concentrations (≤7 mM) of SDS, i.e., below the critical micelle concentration for SDS, which is 8.2 mM in water at 25 °C,[152] leads to the formation of stable and homogeneous Aβ42 oligomers of certain sizes and conformations.[131],[132],[153] To prepare such oligomers, size exclusion chromatography (SEC) was initially used to purify synthetic Aβ42 peptides into monomeric form. First, 1 mg of lyophilized Aβ42 powder was dissolved in […] of DMSO. Next, a […] HiTrap desalting column (GE Healthcare, Uppsala) was equilibrated with a 5 mM NaOH solution (pH = 12.3) and washed with a solution of 10–15 mL of 5 mM NaOD, pD = 12.7.[154] The peptide solution in DMSO was applied to the column, followed by an injection of 1.25 mL of 5 mM NaOD. The collection of peptide fractions in 5 mM NaOD on ice was started at a […] flow rate. Ten fractions of 1 mL volumes were collected in 1.5 mL Eppendorf tubes. The absorbance for each fraction at 280 nm was measured with a NanoDrop instrument (Eppendorf, Germany), and peptide concentrations were determined using a molar extinction coefficient of 1280 M^–1 cm^–1 for the single Tyr in Aβ42.[155] The peptide fractions were flash-frozen in liquid nitrogen, covered with argon gas on top in 1.5 mL Eppendorf tubes, and stored at −80 °C until used. SDS-stabilized Aβ42 oligomers of two well-defined sizes (approximately tetramers and dodecamers) were prepared according to a previously published protocol,[131] but in D2O, at a 4-fold lower peptide concentration and without the original dilution step.[132]
# Thus, 4–16% Bis–Tris Novex gels (Thermo Fisher Scientific, USA) were loaded with 10 μL samples containing Aβ42 oligomer solutions alongside alongside the Amersham high MW calibration kit for native electrophoresis (GE Healthcare, USA). The gels were run at 4 °C using the electrophoresis system according to the Invitrogen instructions (Thermo Fisher Scientific, USA) and then stained with the Pierce Silver Staining Kit according to the manufacturer’s instructions (Thermo Fisher Scientific, USA). […]
# T1 sequence (P05067 672-713 limits assumed): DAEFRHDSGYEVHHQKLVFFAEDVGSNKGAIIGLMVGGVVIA
compound,measurement,setting,value
"CC(=O)[O-].CC(=O)[O-].[O]=[U+2]=[O] [uranyl ions, uranyl acetate]",formation of AβO0.05%SDS oligomers (BN-PAGE),"0.05% SDS, 10, 100, 1000 μM uranyl acetate, 80–100 μM Aβ42",no well-defined uniform oligomers were observed
same,concentration required for full disruption of homogeneous AβO0.05%SDS oligomers,"0.05% SDS, Aβ42 oligomers",10 µM
same,formation of AβO0.2%SDS oligomers (BN-PAGE),"0.2% SDS, 10, 100, 1000 μM uranyl, 80–100 μM Aβ42",gradually lower amounts of stable AβO0.2%SDS oligomers
